Assay [1] addresses T1, Hell's Gate globin-I (HGb-I) (Candidatus Methylacidiphilum infernorum, UniProt B3DUZ7).
T1 construct: gene hmp
T1 sequence (B3DUZ7 1-133): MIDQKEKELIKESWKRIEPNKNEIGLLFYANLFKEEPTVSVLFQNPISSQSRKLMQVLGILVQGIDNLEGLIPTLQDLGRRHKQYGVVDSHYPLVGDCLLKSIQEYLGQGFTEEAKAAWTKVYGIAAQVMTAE
Nature of the assay: stopped-flow CO binding kinetics; optical spectrum of ferrous-CO form.

Assay [2] deals with T1, Hell's Gate globin-I (HGb-I). The assay is described as follows: optical (absorbance) titration of ferric protein at pH […] °C; supported by EPR and stopped flow. Format: binding.
The target is the same in assay [3]. Nature of the assay: optical (absorbance) titration of ferric protein at pH […] °C. Format: binding.

In the case of `[C-]#[O+]` [carbon monoxide], the “stopped-flow CO binding kinetics; optical spectrum of ferrous-CO form” value in assay [1] was “In the absence of oleate, the CO binding to the hexacoordinate form is slow and reaches a plateau”.
In general, Kd refers to the constant that tells how readily two partners part at equilibrium. In assay [2], `CCCCCCCC/C=C\CCCCCCCC(=O)O` [oleate] displayed a Kd of 0.73 µM.
Compound `CCCCCCCCCCCCCCCC(=O)O` [palmitate] gave a Kd in assay [3] of 9.88 µM.

Values taken from PMC11203436, “Hell’s Gate Globin-I from Methylacidiphilum infernorum Displays a Unique Temperature-Independent pH Sensing Mechanism Utililized a Lipid-Induced Conformational Change” (International Journal of Molecular Sciences, 2024).
